From patent publication US8633134B2, “Substituted amidine compounds for combating animal pests” (priority 2008, dated 2014)

What was measured:
Type in all cases: in vivo
[1] = system: Tobacco Budworm (Heliothis virescens); assay: Tobacco budworm cotton plant foliar spray test; conditions: 96 h
Experimental: (§1) The active compounds were formulated in cyclohexanone as a 10,000 ppm solution supplied in tubes. The tubes were inserted into an automated electrostatic sprayer equipped with an atomizing nozzle and they served as stock solutions for which lower dilutions were made in 50% acetone:50% water (v/v). A nonionic surfactant (Kinetic®) was included in the solution at a volume of 0.01% (v/v).
Cotton plants were grown 2 plants to a pot and selected for treatment at the cotyledon stage. Test solutions were sprayed onto the foliage by an automated electrostatic plant sprayer equipped with an atomizing spray nozzle. The plants were dried in the sprayer fume hood and then removed from the sprayer. Each pot was placed into perforated plastic bags with a zip closure. About 10 to 11 budworm larvae were placed into the bag and the bags zipped closed. Test plants were maintained in a growth room at about 25° C. and about 20-40% relative humidity for 4 days, avoiding direct exposure to fluorescent light (24 hour photoperiod) to prevent trapping of heat inside the bags. Mortality and reduced feeding were assessed 4 days after treatment, compared to untreated control plants.

[2] = system: Mediterranean Fruitfly (Ceratitis capitata); assay: Mediterranean fruitfly microtiter plate diet test; conditions: 120 h
Experimental: For evaluating control of Mediterranean fruitfly (Ceratitis capitata) the test unit consisted of microtiter plates containing an insect diet and 50-80 C. capitata eggs. The compounds were formulated using a solution containing 75% v/v water and 25% v/v DMSO. Different concentrations of formulated compounds were sprayed onto the insect diet at 5 μl, using a custom built micro atomizer, at two replications.
After application, microtiter plates were incubated at about 28±1° C. and about 80±5% relative humidity for 5 days. Egg and larval mortality was then visually assessed.

[3] = system: Boll Weevil (Anthonomus grandis); assay: Boll weevil microtiter plate diet test; conditions: 120 h
Experimental: For evaluating control of boll weevil (Anthonomus grandis) the test unit consisted of 24-well-microtiter plates containing an insect diet and 20-30 A. grandis eggs.
The compounds were formulated using a solution containing 75% v/v water and 25% v/v DMSO. Different concentrations of formulated compounds were sprayed onto the insect diet at 20 μl, using a custom built micro atomizer, at two replications. After application, microtiter plates were incubated at about 23±1° C. and about 50±5% relative humidity for 5 days. Egg and larval mortality was then visually assessed.

[4] = system: Southern Armyworm (Spodoptera eridania); assay: Southern armyworm lima bean foliar spray test; conditions: 96 h
Experimental: as §1
Lima bean plants (variety Sieva) were grown 2 plants to a pot and selected for treatment at the 1st true leaf stage. Test solutions were sprayed onto the foliage by an automated electrostatic plant sprayer equipped with an atomizing spray nozzle. The plants were dried in the sprayer fume hood and then removed from the sprayer. Each pot was placed into perforated plastic bags with a zip closure. About 10 to 11 armyworm larvae were placed into the bag and the bags zipped closed. Test plants were maintained in a growth room at about 25° C. and about 20-40% relative humidity for 4 days, avoiding direct exposure to fluorescent light (24 hour photoperiod) to prevent trapping of heat inside the bags. Mortality and reduced feeding were assessed 4 days after treatment, compared to untreated control plants.

[5] = system: yellowfever mosquito larvae (Aedes aegypti); assay: Larval mosquito water treatment assay; conditions: 120 h, 5 DAT (days after treatment), first tier test, in comparison with untreated controls
Experimental: The assay was conducted in 6-well polystyrene plates using one plate per treatment rate. Stock solutions were prepared at 100 and 1000 ppm. Screen rates were at 1 and 10 ppm. Distilled water was added to each well, control wells were treated with acetone. Temephos (Abate technical) was used as the standard at 0.1 ppm. Ten late thirdinstar yellowfever mosquito larvae (Aedes aegypti) in water were added to each well. One drop of liver powder solution (6 g in 100 ml distilled water) was added to each well as a food source daily. Plates were maintained at 22-25° C. and 25-50% RH (relative humidity) and observed daily for dead larvae and pupae at 1, 2, 3, and 5 days after treatment. Dead larvae and all pupae were removed daily. Mortality was defined as an insect incapable of coordinated movement when agitated.

[6] = system: Vetch Aphid (Megoura viciae); assay: Vetch aphid leaf disk microtiter plate test; conditions: foliar, 120 h
Experimental: For evaluating control of vetch aphid (Megoura viciae) through contact or systemic means the test unit consisted of 24-well-microtiter plates containing broad bean leaf disks.
The compounds were formulated using a solution containing 75% v/v water and 25% v/v DMSO. Different concentrations of formulated compounds were sprayed onto the leaf disks at 2.5 μl, using a custom built micro atomizer, at two replications. After application, the leaf disks were air-dried and 5-8 adult aphids placed on the leaf disks inside the microtiter plate wells. The aphids were then allowed to suck on the treated leaf disks and incubated at about 23±1° C. and about 50±5% relative humidity for 5 days. Aphid mortality and fecundity was then visually assessed.

[7] = system: Cotton Aphid (Aphis gossypii); assay: Cotton aphid foliar spray test; conditions: 120 h, after 5 days, in comparison with untreated controls
From the text: as §1
Cotton plants at the cotyledon stage were infested with aphids prior to treatment by placing a heavily infested leaf from the main aphid colony on top of each cotyledon. Aphids were allowed to transfer overnight to accomplish an infestation of 80-100 aphids per plant and the host leaf was removed. The infested plants were then sprayed by an automated electrostatic plant sprayer equipped with an atomizing spray nozzle. The plants were dried in the sprayer fume hood, removed from the sprayer, and then maintained in a growth room under fluorescent lighting in a 24-hr photoperiod at 25° C. and 20-40% relative humidity. Aphid mortality on the treated plants, relative to mortality on untreated control plants, was determined after 5 days.

[8] = system: Silverleaf Whitefly (Bemisia argentifolii); assay: Silverleaf whitefly cotton plant spray test; conditions: 72 h, 3 days after treatment, in comparison with untreated controls
From the text: as §1
Cotton plants at the cotyledon stage (one plant per pot) were sprayed by an automated electrostatic plant sprayer equipped with an atomizing spray nozzle. The plants were dried in the sprayer fume hood and then removed from the sprayer. Each pot was placed into a plastic cup and about 10 to 12 whitefly adults (approximately 3-5 days old) were introduced. The insects were collected using an aspirator and a nontoxic Tygon® tubing connected to a barrier pipette tip. The tip, containing the collected insects, was then gently inserted into the soil containing the treated plant, allowing insects to crawl out of the tip to reach the foliage for feeding. Cups were covered with a reusable screened lid. Test plants were maintained in a growth room at about 25° C. and about 20-40% relative humidity for 3 days, avoiding direct exposure to fluorescent light (24 hour photoperiod) to prevent trapping of heat inside the cup. Mortality was assessed 3 days after treatment, compared to untreated control plants.

[9] = system: Orchid Thrips (Dichromothrips corbetti); assay: Orchid thrips floral-immersion test; conditions: 96 h
Experimental: Dichromothrips corbetti adults used for bioassay are obtained from a colony maintained continuously under laboratory conditions. For testing purposes, the test compound is diluted to a concentration of 300 ppm (wt compound: vol diluent) in a 1:1 mixture of acetone:water (vol:vol), plus 0.01% vol/vol Kinetic® surfactant.
Thrips potency of each compound is evaluated by using a floral-immersion technique. Plastic petri dishes are used as test arenas. All petals of individual, intact orchid flowers are dipped into treatment solution and allowed to dry. Treated flowers are placed into individual petri dishes along with 10-15 adult thrips. The petri dishes are then covered with lids. All test arenas are held under continuous light and a temperature of about 28° C. for duration of the assay. After 4 days, the numbers of live thrips are counted on each flower, and along inner walls of each petri dish. The level of thrips mortality is extrapolated from pre-treatment thrips numbers.

[10] = system: Diamond Back Moth (Plutella xylostella); assay: Diamond back moth leaf dip test; conditions: foliar, 120 h
Experimental: (§2) The active compound is dissolved at the desired concentration in a mixture of 1:1 (vol:vol) distilled water:acteon. The test solution is prepared at the day of use and in general at concentrations of […].
Leaves of Chinese cabbage were dipped in test solution and air-dried. Treated leaves were placed in petri dished lined with moist filter paper. Mortality was recorded 24, 72, and 120 hours after treatment.

[11] = system: Cowpea Aphid (Aphis craccivora); assay: Cowpea aphid spray test on potted cowpea plants; conditions: population reduction assessed after 24, 72, and 120 hours, in comparison with untreated controls
Experimental: as §2
Potted cowpea plants colonized with approximately 100-150 aphids of various stages were sprayed after the pest population has been recorded. Population reduction was assessed after 24, 72, and 120 hours.

[12] = system: Western Flower Thrips (Frankliniella occidentalis); assay: Western flower thrips glass vial / leaf disc test; conditions: 300 ppm; 2 DAT; in comparison with untreated controls
Experimental: Serial dilutions of each technical grade AI were made in pure acetone. 0.5 ml of the treatment solution was deposited into the bottom of a glass vial (scintillation vial). The cap was screwed back onto the vial and inverted for about five seconds. The cap was subsequently removed and the vial laid on its side and rolled constantly, on a hot dog roller, until all the acetone had flashed off and the inner surface of the vial was dry. Cotton leave discs were also dipped simultaneously into the treatment solutions and allowed to dry. After the vials were dried, the leave discs are placed into the vials to serve as a food/water source for the thrips. Each treatment was replicated 5-fold.
Western flower thrips were aspirated into the vials, approximately 5 larvae or adults/vial. Following treatment application the vials were held in a holding room under fluorescent light and constant 26° C. Thrips mortality was assessed at 2 DAT (days after treatment), counting all thrips both dead and alive.

Cc1nc(-c2ccc(C3=NOC(c4cc(Cl)cc(Cl)c4)(C(F)(F)F)C3)cc2CC(F)(F)F)no1 (stereo not shown) [Compound 9-4, 3-{4-[5-(3,5-Dichloro-phenyl)-5-trifluoromethyl-4,5-dihydro-isoxazol-3-yl]-2-trifluoroethyl-phenyl}-5-methyl-[1,2,4]oxadiazole]
mortality at 2500 ppm [1]: ≥ 75% | mortality at 2500 ppm [2]: ≥ 75% | mortality at 2500 ppm [3]: ≥ 75% | mortality at 300 ppm [4]: ≥ 75%

CN=C(NO)c1ccc(C2=NOC(c3cc(Cl)cc(Cl)c3)(C(F)(F)F)C2)cc1C (stereo not shown) [Compound 1-1, 4-[5-(3,5-Dichloro-phenyl)-5-trifluoromethyl-4,5-dihydro-isoxazol-3-yl]-N-hydroxy-2,N′-dimethyl-benzamidine]
mortality at 1 ppm [5]: ≥ 75% | mortality at 2500 ppm [6]: ≥ 75% | mortality at 300 ppm [7]: ≥ 75% | mortality at 300 ppm [8]: ≥ 75% | mortality at 2500 ppm [1]: ≥ 75% | mortality at 300 ppm [9]: ≥ 75% | mortality at 2500 ppm [2]: ≥ 75% | mortality at 300 ppm [10]: ≥ 75% | mortality at 2500 ppm [3]: ≥ 75% | mortality at 300 ppm [4]: ≥ 75%

Cc1cc(C2=NOC(c3cc(Cl)cc(Cl)c3)(C(F)(F)F)C2)ccc1C(=NCc1ccccn1)NO (stereo not shown) [Compound 1-8, 4-[5-(3,5-Dichloro-phenyl)-5-trifluoromethyl-4,5-dihydro-isoxazol-3-yl]-N-hydroxy-2-methyl-N′-pyridin-2-ylmethyl-benzamidine]
mortality at 2500 ppm [6]: ≥ 75% | mortality at 300 ppm [7]: ≥ 75% | mortality at 2500 ppm [1]: ≥ 75% | mortality at 300 ppm [9]: ≥ 75% | mortality at 300 ppm [11]: ≥ 75% | mortality at 2500 ppm [2]: ≥ 75% | mortality at 300 ppm [10]: ≥ 75% | mortality at 2500 ppm [3]: ≥ 75% | mortality at 300 ppm [4]: ≥ 75%

Cc1cc(C2=NOC(c3cc(Cl)cc(Cl)c3)(C(F)(F)F)C2)ccc1C(=NCC(F)(F)F)NC(=O)CO (stereo not shown) [Compound 1-7, 4-[5-(3,5-Dichloro-phenyl)-5-trifluoromethyl-4,5-dihydro-isoxazol-3-yl]-N-hydroxyacetyl-2-methyl-N′-(2,2,2-trifluoro-ethyl)-benzamidine]
mortality at 2500 ppm [1]: ≥ 75% | mortality at 300 ppm [9]: ≥ 75% | mortality at 2500 ppm [2]: ≥ 75% | mortality at 300 ppm [10]: ≥ 75% | mortality at 2500 ppm [3]: ≥ 75% | mortality at 300 ppm [4]: ≥ 75%

CC(=O)N(Cc1ccccn1)C(C(=O)C=NO)c1ccc(C2=NOC(c3cc(Cl)cc(Cl)c3)(C(F)(F)F)C2)cc1C (stereo not shown) [Compound 1-10, N-{{4-[5-(3,5-dichloro-phenyl)-5-trifluoromethyl-4,5-dihydro-isoxazol-3-yl]-2-methyl-phenyl}-hydroxyiminoacetyl-methyl}-N-pyridin-2-ylmethyl-acetamide]
mortality at 2500 ppm [6]: ≥ 75% | mortality at 2500 ppm [1]: ≥ 75% | mortality at 300 ppm [9]: ≥ 75% | mortality at 300 ppm [11]: ≥ 75% | mortality at 2500 ppm [2]: ≥ 75% | mortality at 300 ppm [10]: ≥ 75% | mortality at 2500 ppm [3]: ≥ 75% | mortality at 300 ppm [4]: ≥ 75%

Cc1cc(C2=NOC(c3cc(Cl)cc(Cl)c3)(C(F)(F)F)C2)ccc1C(=NO)N(C)C (stereo not shown) [Compound 1-2]
mortality [12]: at least 75%

Cc1nc(-c2ccc(C3=NOC(c4cc(Cl)cc(Cl)c4)(C(F)(F)F)C3)cc2C)no1 (stereo not shown) [Compound 9-2, 3-{4-[5-(3,5-Dichloro-phenyl)-5-trifluoromethyl-4,5-dihydro-isoxazol-3-yl]-2-methyl-phenyl}-5-methyl-[1,2,4]oxadiazole]
mortality at 2500 ppm [1]: ≥ 75% | mortality at 2500 ppm [2]: ≥ 75% | mortality at 300 ppm [10]: ≥ 75% | mortality at 2500 ppm [3]: ≥ 75% | mortality at 300 ppm [4]: ≥ 75%
